Results as given in patent US11559512B2, “Composition for prevention, alleviation, and/or treatment of heat illness” (priority 2017, dated 2023).
“Also recorded” adds a separate entry of the source.

Experiments:
[1] = system: human vascular endothelial cells (HUVECs); assay: DiOC6 / PI staining and flow cytometry of HUVECs under heat stress load; type: cell-based; settings: heat stress load 40° C. for 2 days, flow cytometry, vs DMSO
Method: Two days later, the culture solution of each well was removed with an aspirator. […] The supernatant was removed, and then, 5 mL of a culture medium at 37° C. was added to the cells and stirred. After the stirring, DiOC6 (final concentration: 80 nM) was added to each 15-mL tube and reacted at the same temperature as the culture temperature for 30 minutes.
The supernatant was removed, and then, 1 mL of a culture medium was added to the cells, and 2 μL of PI (Sigma-Aldrich Co. LLC) was added. The cells thus supplemented were transferred to a FACS tube and measured in a flow cytometer (BD).
In order to quantify the effects, the cytotoxicity suppressive effects of auraptene (component A) and tangeretin (component T) inhibiting the cell death caused by the load of heat stress were quantified using DiOC6 staining and flow cytometry as described above. The DiOC6 dye is a reagent for measuring mitochondrial activity and is a reagent that can perform measurement based on the attenuation of the amount of fluorescence by cytotoxicity (cell death, etc.).

[2] = system: fat droplets in human vascular endothelial cells (HUVECs); assay: Intracellular fat droplets, BODIPY staining, confocal microscopy; type: cell-based
Method: Then, nine 35-mm dishes were provided, and 2 mL/dish of the solution with the adjusted HUVEC density was inoculated. Auraptene (10 mM) and tangeretin (10 mM) were each added at 2 μL (final concentration: 10 μM)/dish to three dishes. Also, DMSO was added at 2 μL/dish to the remaining 3 dishes to prepare a control.
The supernatant of the HUVECs cultured in each 35-mm dish was removed, and 2 mL/dish of 4% paraformaldehyde in a phosphate buffer solution was added. The cells were left standing at room temperature for 1 hour for cell fixation. The solution was removed, and then, the cells were rinsed twice. 1 mL/dish of BODIPY diluted 2000-fold with a FACS buffer was added, and the cells were left standing at room temperature for 30 minutes in the dark for reaction.
The solution was removed, and then, the cells were rinsed twice. Two drops of Diamond Antifade Mountant with DAPI were added to the cells, and a round glass cover was put on the cells, followed by fluorescence photographing under a confocal laser scanning microscope.

PPARα = PPARα expression in HUVECs, antibody staining, confocal microscopy; type: cell-based, human
Method: (§1) Then, six 35-mm dishes were provided, and 2 mL/dish of the solution with the adjusted HUVEC density was inoculated. Auraptene (10 mM) and tangeretin (10 mM) were each added at 2 μL (final concentration: 10 μM)/dish to two dishes. Also, DMSO was added at 2 μL/dish to the remaining 2 dishes to prepare a control.
(§2) The supernatant of the HUVECs cultured in each 35-mm dish was removed, and 2 mL/dish of 4% paraformaldehyde in a phosphate buffer solution was added. The cells were left standing at room temperature for 1 hour.
(§3) The solution was removed, and then, the cells were rinsed twice. 2 mL/dish of 0.5% Triton-X00 (Wako Pure Chemical Industries, Ltd.) in PBS was added, and the cells were left standing at room temperature for 5 minutes. The solution was removed, and then, the cells were rinsed twice. 1 mL/dish of an anti-ABCD3 antibody, an anti-PPARα antibody or an anti-PPARγ antibody, each of which was diluted 150-fold with a FACS buffer, was added, and the cells were left standing at room temperature for 2 hours for reaction.
The solution was removed, and then, the cells were rinsed twice. 1 mL/dish of DyLight 649-labeled anti-Rabbit IgG antibody diluted 500-fold with a FACS buffer was added, and the cells were left standing at room temperature for 1 hour in the dark for reaction. The solution was removed, and then, the cells were rinsed twice. Two drops of Diamond Antifade Mountant with DAPI were added to the cells, and a round glass cover was put on the cells, followed by fluorescence photographing under a confocal laser scanning microscope.

ABCD3 = ABCD3 expression in HUVECs, antibody staining, confocal microscopy; type: cell-based, human; settings: usual culture and heat stress load (40° C. for 3 days), vs DMSO
Method: as §1, §2, §3
The solution was removed, and then, the cells were rinsed twice. […] Two drops of Diamond Antifade Mountant with DAPI were added to the cells, and a round glass cover was put on the cells, followed by fluorescence photographing under a confocal laser scanning microscope.

[3] = system: human vascular endothelial cells (HUVECs); assay: Suppression of cell death by addition of medium chain fatty acid, crystal violet / phase contrast microscopy; type: cell-based; settings: auraptene 5 μM used alone, printed at 37° C. (FIG. 19A)
[4] = Table 2 summary, HUVECs 40° C., 37° C. as comparative control

SMILES: CC(C)=CCC/C(C)=C/COc1ccc2ccc(=O)oc2c1 [auraptene, 7-geranyloxycoumarin]
- number of DiOC6 staining-positive cells (suppression of cytotoxicity, cell death) [1]: increased the number of DiOC6 staining-positive cells
- amount of fat droplets under heat stress load ([2]; HUVECs, 40° C. for 2 days, 10 μM, BODIPY, vs DMSO): decrease in the amount of fat droplets; also recorded: decreased the amount of fat droplets
- amount of fat droplets at usual culture ([2]; HUVECs, usual culture (37° C.), 10 μM, vs DMSO): no change in the amount of fat droplets
- Amount of fat droplets [2, 4]: Decreased
- expression of PPARα (PPARα; HUVECs, 40° C. and 1 day, 10 μM, vs DMSO): increase in the expression of PPARα
- PPARα (PPARα; [4]): Increased
- change in the expression of ABCD3 (ABCD3): change in the expression of ABCD3 was not observed; also recorded: not found
- overall number of cells, auraptene alone [3]: increase the overall number of cells
